Format in all cases: biochemical
One assay has as its target T1, PI3Kδ (Homo sapiens, UniProt O00329).
T1 construct: made in house
Kind of assay: TR-FRET enzymatic activity assay, PI3Kδ. To be noted: Table 2a; same assay.

The target of the next assay is T2, PI3Kβ (Homo sapiens, UniProt P42338).
T2 construct: made in house
Kind of assay: TR-FRET enzymatic activity assay, PI3Kβ. As to conditions: Table 2a; same assay.

A further assay concerns the target T3, PI3Kγ (Homo sapiens, UniProt P48736).
T3 construct: made in house
Kind of assay: TR-FRET enzymatic activity assay, PI3Kγ. To be noted: Table 2a; same assay; read-out: PI3Kγ IC50. A digest of the protocol: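 Enzymatic activity against the PI3K isoforms was measured using a time-resolved fluorescence resonance energy transfer (TR-FRET) assay.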

The structures appear in SMILES notation. Where only a bound is given, the exact number is not on record here.

T3 sequence (P48736 whole entry): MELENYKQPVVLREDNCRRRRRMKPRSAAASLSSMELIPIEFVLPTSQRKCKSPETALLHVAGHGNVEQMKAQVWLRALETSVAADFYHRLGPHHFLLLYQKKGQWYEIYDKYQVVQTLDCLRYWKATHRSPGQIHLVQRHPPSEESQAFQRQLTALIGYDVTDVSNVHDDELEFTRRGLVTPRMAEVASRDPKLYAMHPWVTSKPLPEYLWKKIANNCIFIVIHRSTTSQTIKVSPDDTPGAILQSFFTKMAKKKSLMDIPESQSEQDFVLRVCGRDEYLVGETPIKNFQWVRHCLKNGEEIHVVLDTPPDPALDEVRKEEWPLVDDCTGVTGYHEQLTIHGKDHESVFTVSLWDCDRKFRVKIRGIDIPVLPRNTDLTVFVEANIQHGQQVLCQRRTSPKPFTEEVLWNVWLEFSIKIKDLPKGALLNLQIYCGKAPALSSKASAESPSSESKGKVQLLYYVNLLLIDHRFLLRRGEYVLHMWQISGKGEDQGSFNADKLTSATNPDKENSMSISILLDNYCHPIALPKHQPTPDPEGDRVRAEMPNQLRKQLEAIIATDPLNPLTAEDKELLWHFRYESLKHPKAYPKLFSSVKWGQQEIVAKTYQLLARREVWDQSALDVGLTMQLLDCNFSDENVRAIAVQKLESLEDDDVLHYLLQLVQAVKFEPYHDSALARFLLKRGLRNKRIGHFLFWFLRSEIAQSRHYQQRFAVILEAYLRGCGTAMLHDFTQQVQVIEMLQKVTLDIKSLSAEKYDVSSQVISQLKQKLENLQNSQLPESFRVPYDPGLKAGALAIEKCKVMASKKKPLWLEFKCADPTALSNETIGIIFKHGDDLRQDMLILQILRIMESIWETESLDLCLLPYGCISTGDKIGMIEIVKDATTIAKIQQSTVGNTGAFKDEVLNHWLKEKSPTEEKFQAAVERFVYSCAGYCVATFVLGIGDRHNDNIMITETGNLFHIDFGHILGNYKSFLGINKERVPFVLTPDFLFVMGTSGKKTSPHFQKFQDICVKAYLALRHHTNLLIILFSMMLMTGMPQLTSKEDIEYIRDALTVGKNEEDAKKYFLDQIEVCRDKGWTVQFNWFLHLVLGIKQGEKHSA
T2 sequence (P42338 whole entry): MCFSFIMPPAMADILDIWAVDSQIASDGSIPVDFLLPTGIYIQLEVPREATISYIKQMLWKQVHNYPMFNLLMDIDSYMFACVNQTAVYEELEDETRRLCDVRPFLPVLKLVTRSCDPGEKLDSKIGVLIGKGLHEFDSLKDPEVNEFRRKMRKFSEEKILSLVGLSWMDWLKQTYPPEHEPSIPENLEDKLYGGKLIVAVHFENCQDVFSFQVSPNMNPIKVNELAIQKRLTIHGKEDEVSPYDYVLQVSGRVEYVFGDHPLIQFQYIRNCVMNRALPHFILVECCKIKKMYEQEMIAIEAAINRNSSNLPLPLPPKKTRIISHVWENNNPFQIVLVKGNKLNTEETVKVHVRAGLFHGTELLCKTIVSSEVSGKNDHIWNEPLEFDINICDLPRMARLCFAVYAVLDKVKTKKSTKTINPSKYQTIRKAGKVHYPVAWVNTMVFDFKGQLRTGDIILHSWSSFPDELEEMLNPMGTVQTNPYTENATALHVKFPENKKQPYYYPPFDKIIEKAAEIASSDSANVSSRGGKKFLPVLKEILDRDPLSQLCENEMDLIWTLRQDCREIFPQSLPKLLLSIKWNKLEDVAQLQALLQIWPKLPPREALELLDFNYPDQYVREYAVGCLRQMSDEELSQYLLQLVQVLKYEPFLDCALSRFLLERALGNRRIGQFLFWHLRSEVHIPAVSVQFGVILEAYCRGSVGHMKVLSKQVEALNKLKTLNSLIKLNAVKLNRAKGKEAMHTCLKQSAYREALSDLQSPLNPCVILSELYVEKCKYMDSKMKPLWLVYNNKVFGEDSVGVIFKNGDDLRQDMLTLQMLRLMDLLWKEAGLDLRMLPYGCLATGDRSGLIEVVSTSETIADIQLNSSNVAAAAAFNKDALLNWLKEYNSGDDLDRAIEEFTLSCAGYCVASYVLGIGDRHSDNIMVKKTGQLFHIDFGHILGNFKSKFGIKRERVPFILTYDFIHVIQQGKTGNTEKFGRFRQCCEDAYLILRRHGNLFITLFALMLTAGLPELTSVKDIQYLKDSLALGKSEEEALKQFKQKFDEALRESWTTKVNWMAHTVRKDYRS
T2 sequence (P27986 whole entry partner): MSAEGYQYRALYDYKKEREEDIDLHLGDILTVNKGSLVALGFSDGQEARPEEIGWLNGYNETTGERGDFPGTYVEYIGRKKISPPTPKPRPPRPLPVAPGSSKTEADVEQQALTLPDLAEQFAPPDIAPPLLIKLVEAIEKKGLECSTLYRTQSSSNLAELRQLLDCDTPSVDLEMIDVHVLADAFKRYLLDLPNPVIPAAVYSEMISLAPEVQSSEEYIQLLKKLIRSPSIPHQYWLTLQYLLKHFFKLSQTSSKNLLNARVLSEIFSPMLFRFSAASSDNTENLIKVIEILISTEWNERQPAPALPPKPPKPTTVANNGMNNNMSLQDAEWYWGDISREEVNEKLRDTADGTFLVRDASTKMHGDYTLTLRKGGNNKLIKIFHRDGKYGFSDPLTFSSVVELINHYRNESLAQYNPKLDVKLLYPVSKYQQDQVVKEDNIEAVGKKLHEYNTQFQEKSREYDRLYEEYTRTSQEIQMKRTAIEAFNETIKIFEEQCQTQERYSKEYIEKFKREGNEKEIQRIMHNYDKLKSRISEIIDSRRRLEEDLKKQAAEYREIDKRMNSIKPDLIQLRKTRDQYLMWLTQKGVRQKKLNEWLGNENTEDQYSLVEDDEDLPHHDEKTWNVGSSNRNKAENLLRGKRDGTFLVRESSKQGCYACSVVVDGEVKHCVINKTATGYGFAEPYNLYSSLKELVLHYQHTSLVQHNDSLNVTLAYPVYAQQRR
T1 sequence (O00329 whole entry): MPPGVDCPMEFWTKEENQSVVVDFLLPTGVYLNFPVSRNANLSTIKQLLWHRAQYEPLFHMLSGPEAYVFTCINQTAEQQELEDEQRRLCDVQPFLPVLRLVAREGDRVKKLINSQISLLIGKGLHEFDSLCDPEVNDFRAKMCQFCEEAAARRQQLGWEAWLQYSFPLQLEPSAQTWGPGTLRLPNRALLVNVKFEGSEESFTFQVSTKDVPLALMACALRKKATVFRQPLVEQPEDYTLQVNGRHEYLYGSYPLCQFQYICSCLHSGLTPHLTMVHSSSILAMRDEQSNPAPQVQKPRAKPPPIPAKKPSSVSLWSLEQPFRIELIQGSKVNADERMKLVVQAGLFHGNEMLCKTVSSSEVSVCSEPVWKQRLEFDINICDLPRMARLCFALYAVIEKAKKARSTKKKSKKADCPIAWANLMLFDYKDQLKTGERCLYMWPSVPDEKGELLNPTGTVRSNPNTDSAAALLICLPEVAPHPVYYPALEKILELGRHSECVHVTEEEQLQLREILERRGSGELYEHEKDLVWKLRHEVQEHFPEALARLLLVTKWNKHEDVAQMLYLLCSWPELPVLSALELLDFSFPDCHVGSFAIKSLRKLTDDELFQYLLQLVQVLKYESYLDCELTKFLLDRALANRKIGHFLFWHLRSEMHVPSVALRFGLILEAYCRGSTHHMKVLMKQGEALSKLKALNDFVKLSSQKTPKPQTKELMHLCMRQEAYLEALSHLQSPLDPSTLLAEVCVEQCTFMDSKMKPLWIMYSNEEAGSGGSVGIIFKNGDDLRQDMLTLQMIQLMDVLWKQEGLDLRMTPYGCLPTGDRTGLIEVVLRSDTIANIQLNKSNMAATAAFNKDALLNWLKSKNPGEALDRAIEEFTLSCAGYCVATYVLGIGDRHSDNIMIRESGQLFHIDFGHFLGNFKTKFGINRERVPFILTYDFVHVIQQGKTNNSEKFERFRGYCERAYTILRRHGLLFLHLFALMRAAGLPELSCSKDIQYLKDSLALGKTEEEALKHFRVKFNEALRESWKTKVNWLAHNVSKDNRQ
T1 sequence (P27986 whole entry partner): as the sequence (P27986 whole entry partner) above

Turning to `C[C@H](Nc1nc(N)nc(N)c1C#N)c1nc2c(Cl)cc(F)cc2c(=O)n1-c1cn[nH]c1` [Compound 266, (S)-2,4-diamino-6-((1-(8-chloro-6-fluoro-4-oxo-3-(1H-pyrazol-4-yl)-3,4-dihydroquinazolin-2-yl)ethyl)amino)pyrimidine-5-carbonitrile], the results for the IC50 at PI3Kδ, against PI3Kβ and on PI3Kγ were 1 nM, 4 nM and 84 nM, respectively.

As to `CCC[C@H](Nc1nc(N)nc(N)c1Cl)c1nc2ccc(F)c(Cl)c2c(=O)n1-c1cc[nH]n1` [Compound 267, (S)-5-chloro-2-(1-((2,6-diamino-5-chloropyrimidin-4-yl)amino)butyl)-6-fluoro-3-(1H-pyrazol-3-yl)quinazolin-4(3H)-one], the IC50 on PI3Kδ is 27 nM; at PI3Kβ, 120 nM; at PI3Kγ, over 10000 nM.

In the case of `CCC[C@H](Nc1nc(N)nc(N)c1C#N)c1nc2ccc(F)c(Cl)c2c(=O)n1-c1cc[nH]n1` [Compound 268, (S)-2,4-diamino-6-((1-(5-chloro-6-fluoro-4-oxo-3-(1H-pyrazol-3-yl)-3,4-dihydroquinazolin-2-yl)butyl)amino)pyrimidine-5-carbonitrile], the half-maximal inhibitory concentration (IC50) against PI3Kδ came out at 2 nM; against PI3Kβ, 5 nM; at PI3Kγ, 900 nM.

For `N#Cc1c(N)nc(N)nc1N[C@H](c1nc2c(Cl)cc(F)cc2c(=O)n1-c1cn[nH]c1)C1CC1` [Compound 269, (S)-2,4-diamino-6-(((8-chloro-6-fluoro-4-oxo-3-(1H-pyrazol-4-yl)-3,4-dihydroquinazolin-2-yl)(cyclopropyl)methyl)amino)pyrimidine-5-carbonitrile], the IC50 against PI3Kδ is 1 nM; on PI3Kβ it was 0.9 nM; at PI3Kγ, 170 nM.

As for `C[C@H](Nc1nc(N)nc(N)c1Cl)c1nc2c(Cl)cc(F)cc2c(=O)n1-c1n[nH]cc1Br` [Compound 270, (S)-3-(4-bromo-1H-pyrazol-3-yl)-8-chloro-2-(1-((2,6-diamino-5-chloropyrimidin-4-yl)amino)ethyl)-6-fluoroquinazolin-4(3H)-one], the IC50 against PI3Kδ was 26 nM; at PI3Kβ, 2300 nM; on PI3Kγ it was over 10000 nM.

For the molecule `C[C@H](Nc1nc(N)nc(N)c1Cl)c1nc2c(C#N)cc(F)cc2c(=O)n1-c1cc[nH]n1` [Compound 271, (S)-2-(1-((2,6-diamino-5-chloropyrimidin-4-yl)amino)ethyl)-6-fluoro-4-oxo-3-(1H-pyrazol-3-yl)-3,4-dihydroquinazoline-8-carbonitrile], the figures for the IC50 against PI3Kδ, at PI3Kβ and on PI3Kγ were 18 nM, 28 nM and over 10000 nM, respectively.

For the molecule `C[C@H](Nc1nc(N)nc(N)c1C#N)c1nc2c(C#N)cc(F)cc2c(=O)n1-c1cc[nH]n1` [Compound 272, (S)-2-(1-((2,6-diamino-5-cyanopyrimidin-4-yl)amino)ethyl)-6-fluoro-4-oxo-3-(1H-pyrazol-3-yl)-3,4-dihydroquinazoline-8-carbonitrile], the IC50 worked out at 0.9 nM against PI3Kδ, 1 nM against PI3Kβ and 2700 nM on PI3Kγ.

Consider `N#Cc1cc(F)cc2c(=O)n(-c3cc[nH]n3)c([C@@H](Nc3nc(N)nc(N)c3Cl)C3CC3)nc12` [Compound 273, (S)-2-(cyclopropyl((2,6-diamino-5-chloropyrimidin-4-yl)amino)methyl)-6-fluoro-4-oxo-3-(1H-pyrazol-3-yl)-3,4-dihydroquinazoline-8-carbonitrile], for which the IC50 against PI3Kδ is 21 nM; on PI3Kβ, 18 nM; at PI3Kγ, over 10000 nM.

Consider `C[C@H](Nc1nc(N)nc(N)c1C#N)c1nc2ccccc2c(=O)n1-c1cc[nH]n1` [Compound 274, (S)-2,4-diamino-6-((1-(4-oxo-3-(1H-pyrazol-3-yl)-3,4-dihydroquinazolin-2-yl)ethyl)amino)pyrimidine-5-carbonitrile], for which the figures for the IC50 against PI3Kδ, against PI3Kβ and at PI3Kγ were 3 nM, 2 nM and 760 nM, respectively.

`C[C@H](Nc1nc(N)nc(N)c1Cl)c1nc2ccccc2c(=O)n1-c1cc[nH]n1` [Compound 275, (S)-2-(1-((2,6-diamino-5-chloropyrimidin-4-yl)amino)ethyl)-3-(1H-pyrazol-3-yl)quinazolin-4(3H)-one]: the IC50 was 40 nM at PI3Kδ, 46 nM on PI3Kβ and over 10000 nM at PI3Kγ.

As to `C[C@H](NC(=O)c1nc(Cl)c(N)nc1N)c1nc2cccc(Cl)c2c(=O)n1-c1cc[nH]n1` [Compound 276, (S)-3,5-diamino-6-chloro-N-(1-(5-chloro-4-oxo-3-(1H-pyrazol-3-yl)-3,4-dihydroquinazolin-2-yl)ethyl)pyrazine-2-carboxamide], the results for the concentration for half-maximal inhibition (IC50) against PI3Kδ, against PI3Kβ and on PI3Kγ were 36 nM, 20 nM and 280 nM, respectively.

For `C[C@H](NC(=O)c1nc(Cl)c(N)nc1N)c1nc2c(F)ccc(Cl)c2c(=O)n1-c1cc[nH]n1` [Compound 277, (S)-3,5-diamino-6-chloro-N-(1-(5-chloro-8-fluoro-4-oxo-3-(1H-pyrazol-3-yl)-3,4-dihydroquinazolin-2-yl)ethyl)pyrazine-2-carboxamide], the IC50 turned out to be 50 nM against PI3Kδ, 43 nM on PI3Kβ and 390 nM on PI3Kγ.

On to `C[C@H](NC(=O)c1nc(Cl)c(N)nc1N)c1nc2c(F)ccc(Cl)c2c(=O)n1-c1cn[nH]c1` [Compound 278, (S)-3,5-diamino-6-chloro-N-(1-(5-chloro-8-fluoro-4-oxo-3-(1H-pyrazol-4-yl)-3,4-dihydroquinazolin-2-yl)ethyl)pyrazine-2-carboxamide], for which the IC50 at PI3Kδ was determined as 53 nM; against PI3Kβ it was 83 nM; at PI3Kγ, 590 nM.

With `C[C@H](Nc1nc(N)nc(N)c1C#N)c1nc2c(Cl)cc(F)cc2c(=O)n1-c1cc[nH]n1` [Compound 279, (S)-2,4-diamino-6-((1-(8-chloro-6-fluoro-4-oxo-3-(1H-pyrazol-3-yl)-3,4-dihydroquinazolin-2-yl)ethyl)amino)pyrimidine-5-carbonitrile], the results for the IC50 against PI3Kδ, against PI3Kβ and at PI3Kγ were 0.2 nM, 1 nM and 710 nM, respectively.

Turning to `Nc1nc(N)c(Cl)c(N[C@H](c2nc3c(Cl)cc(F)cc3c(=O)n2-c2c[nH]cn2)C2CC2)n1` [Compound 280, (S)-8-chloro-2-(cyclopropyl((2,6-diamino-5-chloropyrimidin-4-yl)amino)methyl)-6-fluoro-3-(1H-imidazol-4-yl)quinazolin-4(3H)-one], the figures for the IC50 against PI3Kδ, against PI3Kβ and at PI3Kγ were 48 nM, 370 nM and over 10000 nM, respectively.

Turning to `N#Cc1c(N)nc(N)nc1N[C@H](c1nc2c(Cl)cc(F)cc2c(=O)n1-c1c[nH]cn1)C1CC1` [Compound 281, (S)-2,4-diamino-6-(((8-chloro-6-fluoro-3-(1H-imidazol-4-yl)-4-oxo-3,4-dihydroquinazolin-2-yl)(cyclopropyl)methyl)amino)pyrimidine-5-carbonitrile], the half-inhibitory concentration (IC50) against PI3Kδ is 1 nM; at PI3Kβ, 2 nM; on PI3Kγ, 620 nM.

As to `CCC[C@H](Nc1nc(N)nc(N)c1Cl)c1nc2cccc(Cl)c2c(=O)n1-c1c[nH]cn1` [Compound 282, (S)-5-chloro-2-(1-((2,6-diamino-5-chloropyrimidin-4-yl)amino)butyl)-3-(1H-imidazol-4-yl)quinazolin-4(3H)-one], the IC50 against PI3Kδ was found to be 26 nM; at PI3Kβ it was 120 nM; on PI3Kγ it was 5700 nM.

For the molecule `CCC[C@H](Nc1nc(N)nc(N)c1C#N)c1nc2cccc(Cl)c2c(=O)n1-c1c[nH]cn1` [Compound 283, (S)-2,4-diamino-6-((1-(5-chloro-3-(1H-imidazol-4-yl)-4-oxo-3,4-dihydroquinazolin-2-yl)butyl)amino)pyrimidine-5-carbonitrile], the results for the IC50 against PI3Kδ, against PI3Kβ and on PI3Kγ were 2 nM, 3 nM and 740 nM, respectively.

As for `C[C@H](Nc1nc(N)nc(N)c1Cl)c1nc2c(Cl)cc(F)cc2c(=O)n1-c1c[nH]cn1` [Compound 284, (S)-8-chloro-2-(1-((2,6-diamino-5-chloropyrimidin-4-yl)amino)ethyl)-6-fluoro-3-(1H-imidazol-4-yl)quinazolin-4(3H)-one], the results for the 50% inhibitory concentration (IC50) against PI3Kδ, at PI3Kβ and at PI3Kγ were 20 nM, 340 nM and over 10000 nM, respectively.

On to `C[C@H](Nc1nc(N)nc(N)c1C#N)c1nc2c(Cl)cc(F)cc2c(=O)n1-c1c[nH]cn1` [Compound 285, (S)-2,4-diamino-6-((1-(8-chloro-6-fluoro-3-(1H-imidazol-4-yl)-4-oxo-3,4-dihydroquinazolin-2-yl)ethyl)amino)pyrimidine-5-carbonitrile], for which the IC50 against PI3Kδ was 1 nM; on PI3Kβ, 4 nM; at PI3Kγ, 330 nM.

For the molecule `C[C@H](Nc1nc(N)nc(N)c1C#N)c1nc2c(Cl)ccc(Cl)c2c(=O)n1-c1c[nH]cn1` [Compound 286, (S)-2,4-diamino-6-((1-(5,8-dichloro-3-(1H-imidazol-4-yl)-4-oxo-3,4-dihydroquinazolin-2-yl)ethyl)amino)pyrimidine-5-carbonitrile], the IC50 on PI3Kδ was found to be 0.3 nM; against PI3Kβ it was 0.8 nM; at PI3Kγ, 230 nM.

With `Nc1nc(N)c(Cl)c(N[C@H](c2nc3cccc(Cl)c3c(=O)n2-c2c[nH]cn2)C2CC2)n1` [Compound 287, (S)-5-chloro-2-(cyclopropyl((2,6-diamino-5-chloropyrimidin-4-yl)amino)methyl)-3-(1H-imidazol-4-yl)quinazolin-4(3H)-one], the IC50 came out at 8 nM against PI3Kδ, 53 nM at PI3Kβ and 3000 nM on PI3Kγ.

`C[C@H](Nc1nc(N)nc(N)c1C#N)c1nc2cccc(Cl)c2c(=O)n1-c1c[nH]cn1` [Compound 288, (S)-2,4-diamino-6-((1-(5-chloro-3-(1H-imidazol-4-yl)-4-oxo-3,4-dihydroquinazolin-2-yl)ethyl)amino)pyrimidine-5-carbonitrile]: the IC50 was 0.7 nM against PI3Kδ, 2 nM on PI3Kβ and 190 nM at PI3Kγ.

The values above are taken from patent US10308639B2, “Phosphatidylinositol 3-kinase inhibitors” (Gilead Sciences, Inc., priority 2014, dated 2019).
